Measured values as given in paper PMC7142304, “Oxadiazole-Containing Macrocyclic Peptides Potentiate Azole Activity against Pathogenic Candida Species” (mSphere, 2020).
≈ marks a conversion by molar mass, not a printed value.

Experiments:
[1] = system: C. glabrata, C. auris, C. tropicalis, and C. parapsilosis; experiment: Fluconazole MIC against azole-resistant non-albicans Candida panel; assay type: cell-based, Candida species; conditions: in the absence of macrocyclic peptides; range over the four strains; YPD, 30°C
Experimental: (D) Fluconazole dose-response assays for diverse Candida species were conducted in YPD medium without (−) or with the indicated macrocycle (62.5 μM). Growth was measured by absorbance at 600 nm after 24 h (C. parapsilosis [CpLC573], C. auris [Ci 6684, CauLC5083], and C. glabrata [BG2, CgLC1002]) or after 48 h (C. tropicalis [CtLC573]) at 30°C. Optical densities were averaged for duplicate measurements and normalized relative to the no-drug control well for each strain.
To evaluate the activity of the oxadiazole-containing macrocyclic peptides against other fungal pathogens, we tested a panel of azole-resistant non-albicans Candida species, including C. glabrata, C. auris, C. tropicalis, and C. parapsilosis. Dose-response assays were conducted using standard protocols ([14]) with a 2-fold dilution series of fluconazole, without or with JRF1197-2, JRF1198-2, or JRF1199-2 at 62.5 μM, a concentration that enhanced azole activity against C. albicans (Fig. 1).

[2] = system: ABC transporters Cdr1 and Cdr2; experiment: Rhodamine-6G intracellular accumulation (efflux inhibition); assay type: cell-based; conditions: 30°C
Experimental: (A) The effect of JRF1199-1 and JRF1199-2 on filamentation of C. albicans (SN95, CaLC239) was monitored after incubation in YPD medium at 30°C or 39°C for 4 h with shaking. Images were taken by differential interference contrast microscopy. Representative fields from micrographs obtained at the same magnification for all images are presented. (B) C. albicans (Caf2-1, CaLC2742) was grown in YPD medium at 30°C for 3 h with or without 125 μM macrocycle or 10 μg/ml of beauvericin. A concentration of 1 μg/ml of rhodamine-6G was added to the cultures for another 30 min at 30°C. Cells were washed twice with phosphate-buffered saline (PBS), followed by fluorescence microscopy to monitor rhodamine-6G accumulation in cells. (C) The fluorescence of untreated cells or of cells treated with beauvericin or JRF1198-2 was quantitated by flow cytometry. Assays were performed using 250 μl of culture per well, and fluorescence was measured using the FL2 (phycoerythrin) channel in a CytoFLEX flow cytometer (Beckman Coulter Inc.) with at least 20,000 events acquired per sample. Events were gated to capture at least 90% of the entire population analyzed, discarding clumps/cellular debris. […] Growth was measured by absorbance at 600 nm after 24 h (C. parapsilosis [CpLC573], C. auris [Ci 6684, CauLC5083], and C. glabrata [BG2, CgLC1002]) or after 48 h (C. tropicalis [CtLC573]) at 30°C. […]

Compound | MIC [1] [µg/mL] | Mean Fluorescence (rhodamine-6G accumulation) ([2]; flow cytometry, FL2 channel, 3 h with 125 μM macrocycle or 10 μg/ml beauvericin, then 1 μg/ml rhodamine-6G for 30 min, at least 20,000 events) | Effect on rhodamine-6G accumulation ([2]; microscopy and flow cytometry, 125 μM macrocycle or 10 μg/ml beauvericin, YPD)
OC(Cn1cncn1)(Cn1cncn1)c1ccc(F)cc1F [fluconazole] | 32 to 256 (≈ 104 to 836 µM) | – | –
beauvericin | – | 275895.3 | enhanced rhodamine-6G accumulation
